Assay results: patent US12275731B2, “Azaindole inhibitors of wild-type and mutant forms of LRRK2” (DANA-FARBER CANCER INSTITUTE, INC., priority 2018, dated 2025)

Assays:
Assay in all cases: KinomeScan profiling
Assay type in all cases: binding
ERK8 = target: T1, ERK8 (Homo sapiens, UniProt Q8TD08); settings: ERK8, 1 μM; read-out: % control
T1 sequence (Q8TD08 1-544): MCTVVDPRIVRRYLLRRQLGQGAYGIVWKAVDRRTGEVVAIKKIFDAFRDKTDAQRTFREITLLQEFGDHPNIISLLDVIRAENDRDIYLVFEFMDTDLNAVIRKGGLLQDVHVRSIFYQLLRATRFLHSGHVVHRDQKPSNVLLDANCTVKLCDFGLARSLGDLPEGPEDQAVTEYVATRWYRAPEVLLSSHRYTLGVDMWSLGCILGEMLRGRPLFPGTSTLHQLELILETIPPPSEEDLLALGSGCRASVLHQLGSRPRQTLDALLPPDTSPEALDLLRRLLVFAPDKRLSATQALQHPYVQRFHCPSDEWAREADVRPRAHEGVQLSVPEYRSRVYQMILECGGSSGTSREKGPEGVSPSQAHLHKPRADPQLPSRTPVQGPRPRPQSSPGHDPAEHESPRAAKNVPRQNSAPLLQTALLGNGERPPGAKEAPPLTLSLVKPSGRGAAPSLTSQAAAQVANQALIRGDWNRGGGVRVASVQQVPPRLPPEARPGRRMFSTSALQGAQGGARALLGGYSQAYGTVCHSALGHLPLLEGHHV
In short: (§1)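 Single-point competition binding screen: 1 μM, DMSO, 468 kinases. Results reported as % control from RLU, normalised to DMSO and positive-control wells. Activity threshold: <35% control.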

[1] = target: T2, ABL1(Y253F)-phosphorylated (Homo sapiens, UniProt P00519, Y253F); settings: read-out: % control
T2 construct: purchased KinomeScan®
In short: as §1

CDK8 = CDK8 (Homo sapiens, UniProt P49336); settings: CDK8, 1 μM; read-out: % control
Chain of CDK8 (P49336 whole entry): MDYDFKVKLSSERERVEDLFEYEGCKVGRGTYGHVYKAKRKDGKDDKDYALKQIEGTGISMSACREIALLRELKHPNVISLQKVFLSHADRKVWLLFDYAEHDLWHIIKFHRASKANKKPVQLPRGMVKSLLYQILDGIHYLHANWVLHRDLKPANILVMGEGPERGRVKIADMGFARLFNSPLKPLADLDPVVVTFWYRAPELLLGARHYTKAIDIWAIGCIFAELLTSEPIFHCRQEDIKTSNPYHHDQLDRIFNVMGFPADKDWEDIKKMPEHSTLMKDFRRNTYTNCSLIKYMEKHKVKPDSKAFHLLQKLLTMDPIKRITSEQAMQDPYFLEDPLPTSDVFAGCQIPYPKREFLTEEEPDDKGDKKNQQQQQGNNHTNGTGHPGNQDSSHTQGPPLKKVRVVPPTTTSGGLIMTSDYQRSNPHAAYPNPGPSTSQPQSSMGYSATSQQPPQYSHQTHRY
In short: as §1

BRSK2 = target: T3, BRSK2 (Homo sapiens, UniProt Q8IWQ3); settings: BRSK2, 1 μM; read-out: % control
T3 sequence (Q8IWQ3 1-736): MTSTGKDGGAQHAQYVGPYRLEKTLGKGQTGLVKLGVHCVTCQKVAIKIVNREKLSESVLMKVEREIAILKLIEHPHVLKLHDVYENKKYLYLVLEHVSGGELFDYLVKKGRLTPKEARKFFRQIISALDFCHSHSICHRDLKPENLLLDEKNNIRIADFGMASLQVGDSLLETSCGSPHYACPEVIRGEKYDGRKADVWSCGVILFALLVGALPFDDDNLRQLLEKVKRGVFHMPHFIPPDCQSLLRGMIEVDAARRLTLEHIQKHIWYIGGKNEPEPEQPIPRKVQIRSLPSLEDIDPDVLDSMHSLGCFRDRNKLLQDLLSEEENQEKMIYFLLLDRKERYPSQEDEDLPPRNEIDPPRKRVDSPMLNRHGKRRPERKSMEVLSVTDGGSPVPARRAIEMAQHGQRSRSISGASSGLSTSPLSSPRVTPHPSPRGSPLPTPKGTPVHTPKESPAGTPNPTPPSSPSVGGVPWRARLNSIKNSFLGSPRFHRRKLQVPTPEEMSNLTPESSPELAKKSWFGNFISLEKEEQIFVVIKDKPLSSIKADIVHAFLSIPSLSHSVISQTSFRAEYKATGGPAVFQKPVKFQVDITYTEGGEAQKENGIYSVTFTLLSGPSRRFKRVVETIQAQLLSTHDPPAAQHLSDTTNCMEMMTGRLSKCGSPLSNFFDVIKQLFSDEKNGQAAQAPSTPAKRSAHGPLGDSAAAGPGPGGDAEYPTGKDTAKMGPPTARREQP
In short: as §1

FGR = FGR (Homo sapiens, UniProt P09769); settings: read-out: % control
Chain of FGR (P09769 whole entry): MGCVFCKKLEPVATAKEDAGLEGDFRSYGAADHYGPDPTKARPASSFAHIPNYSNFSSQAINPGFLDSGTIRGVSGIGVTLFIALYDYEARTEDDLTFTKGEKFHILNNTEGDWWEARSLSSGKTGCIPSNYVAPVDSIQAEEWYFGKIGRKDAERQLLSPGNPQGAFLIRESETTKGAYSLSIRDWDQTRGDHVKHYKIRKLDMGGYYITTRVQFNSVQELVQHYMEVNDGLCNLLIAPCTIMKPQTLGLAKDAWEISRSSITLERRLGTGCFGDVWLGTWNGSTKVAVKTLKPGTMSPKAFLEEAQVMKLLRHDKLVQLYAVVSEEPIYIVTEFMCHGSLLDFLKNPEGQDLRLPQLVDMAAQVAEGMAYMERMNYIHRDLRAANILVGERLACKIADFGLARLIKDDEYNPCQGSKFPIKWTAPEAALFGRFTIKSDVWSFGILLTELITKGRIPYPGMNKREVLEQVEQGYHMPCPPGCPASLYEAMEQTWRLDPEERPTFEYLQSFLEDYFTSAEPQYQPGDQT
In short: as §1

EPHA7 = EPHA7 (Homo sapiens, UniProt Q15375); settings: EPHA7, 1 μM; read-out: % control
Chain of EPHA7 (Q15375 28-998): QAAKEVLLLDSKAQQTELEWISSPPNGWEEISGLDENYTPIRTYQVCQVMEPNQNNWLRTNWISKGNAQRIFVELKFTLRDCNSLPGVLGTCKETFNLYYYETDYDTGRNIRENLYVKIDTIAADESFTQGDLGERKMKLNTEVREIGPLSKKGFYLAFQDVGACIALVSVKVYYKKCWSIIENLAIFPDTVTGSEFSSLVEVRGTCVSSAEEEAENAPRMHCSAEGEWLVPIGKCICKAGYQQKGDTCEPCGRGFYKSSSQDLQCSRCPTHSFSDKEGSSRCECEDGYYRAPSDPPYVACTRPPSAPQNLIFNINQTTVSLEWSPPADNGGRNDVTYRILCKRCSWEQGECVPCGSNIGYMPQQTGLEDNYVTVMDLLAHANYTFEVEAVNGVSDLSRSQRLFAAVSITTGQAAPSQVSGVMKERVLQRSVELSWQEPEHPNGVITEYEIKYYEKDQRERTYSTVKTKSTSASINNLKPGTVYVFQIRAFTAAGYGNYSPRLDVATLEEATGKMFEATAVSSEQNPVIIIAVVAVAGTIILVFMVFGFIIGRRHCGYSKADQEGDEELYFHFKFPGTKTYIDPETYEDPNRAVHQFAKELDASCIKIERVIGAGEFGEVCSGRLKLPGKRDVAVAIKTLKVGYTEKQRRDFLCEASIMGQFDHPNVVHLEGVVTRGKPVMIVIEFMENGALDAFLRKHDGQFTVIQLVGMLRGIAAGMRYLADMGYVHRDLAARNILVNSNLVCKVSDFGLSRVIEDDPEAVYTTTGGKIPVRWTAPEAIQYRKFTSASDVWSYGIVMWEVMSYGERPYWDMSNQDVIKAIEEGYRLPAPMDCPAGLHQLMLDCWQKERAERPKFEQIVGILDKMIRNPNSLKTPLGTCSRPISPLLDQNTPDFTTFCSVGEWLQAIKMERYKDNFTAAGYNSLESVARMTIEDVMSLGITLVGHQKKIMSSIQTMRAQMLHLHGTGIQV
In short: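 The panel spans 468 kinases, and each inventive compound was applied at 1 μM from DMSO. Lower % control means stronger binding; the activity cut-off is set at less than 35%.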

TRKB = TRKB (Homo sapiens, UniProt Q16620); settings: read-out: % control
Chain of TRKB (Q16620 32-822): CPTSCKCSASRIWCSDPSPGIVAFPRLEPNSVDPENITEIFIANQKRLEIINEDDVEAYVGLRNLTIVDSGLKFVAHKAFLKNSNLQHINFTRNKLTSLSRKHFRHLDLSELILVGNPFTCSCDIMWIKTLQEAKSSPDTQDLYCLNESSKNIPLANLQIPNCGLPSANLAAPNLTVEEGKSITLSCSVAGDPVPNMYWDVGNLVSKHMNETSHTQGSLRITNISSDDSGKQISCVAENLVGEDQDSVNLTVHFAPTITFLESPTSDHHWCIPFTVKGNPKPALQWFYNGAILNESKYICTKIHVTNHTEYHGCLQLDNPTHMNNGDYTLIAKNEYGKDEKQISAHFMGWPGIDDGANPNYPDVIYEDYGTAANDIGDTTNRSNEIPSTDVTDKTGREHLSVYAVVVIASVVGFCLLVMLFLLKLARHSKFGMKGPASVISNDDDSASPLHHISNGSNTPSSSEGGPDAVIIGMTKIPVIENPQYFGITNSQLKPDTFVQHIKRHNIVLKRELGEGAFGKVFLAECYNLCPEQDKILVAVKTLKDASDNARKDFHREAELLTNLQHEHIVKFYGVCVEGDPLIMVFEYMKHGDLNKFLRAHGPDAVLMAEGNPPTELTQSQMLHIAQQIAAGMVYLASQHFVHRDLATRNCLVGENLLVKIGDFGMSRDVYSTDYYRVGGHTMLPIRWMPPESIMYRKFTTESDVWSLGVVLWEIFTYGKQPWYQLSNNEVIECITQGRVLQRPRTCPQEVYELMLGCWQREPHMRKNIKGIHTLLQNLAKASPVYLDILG
In short: as §1

PIK3CB = target: T4, PIK3CB (Homo sapiens, UniProt P42338); settings: read-out: % control
T4 construct: purchased KinomeScan® (panel service)
T4 sequence (P42338 whole entry): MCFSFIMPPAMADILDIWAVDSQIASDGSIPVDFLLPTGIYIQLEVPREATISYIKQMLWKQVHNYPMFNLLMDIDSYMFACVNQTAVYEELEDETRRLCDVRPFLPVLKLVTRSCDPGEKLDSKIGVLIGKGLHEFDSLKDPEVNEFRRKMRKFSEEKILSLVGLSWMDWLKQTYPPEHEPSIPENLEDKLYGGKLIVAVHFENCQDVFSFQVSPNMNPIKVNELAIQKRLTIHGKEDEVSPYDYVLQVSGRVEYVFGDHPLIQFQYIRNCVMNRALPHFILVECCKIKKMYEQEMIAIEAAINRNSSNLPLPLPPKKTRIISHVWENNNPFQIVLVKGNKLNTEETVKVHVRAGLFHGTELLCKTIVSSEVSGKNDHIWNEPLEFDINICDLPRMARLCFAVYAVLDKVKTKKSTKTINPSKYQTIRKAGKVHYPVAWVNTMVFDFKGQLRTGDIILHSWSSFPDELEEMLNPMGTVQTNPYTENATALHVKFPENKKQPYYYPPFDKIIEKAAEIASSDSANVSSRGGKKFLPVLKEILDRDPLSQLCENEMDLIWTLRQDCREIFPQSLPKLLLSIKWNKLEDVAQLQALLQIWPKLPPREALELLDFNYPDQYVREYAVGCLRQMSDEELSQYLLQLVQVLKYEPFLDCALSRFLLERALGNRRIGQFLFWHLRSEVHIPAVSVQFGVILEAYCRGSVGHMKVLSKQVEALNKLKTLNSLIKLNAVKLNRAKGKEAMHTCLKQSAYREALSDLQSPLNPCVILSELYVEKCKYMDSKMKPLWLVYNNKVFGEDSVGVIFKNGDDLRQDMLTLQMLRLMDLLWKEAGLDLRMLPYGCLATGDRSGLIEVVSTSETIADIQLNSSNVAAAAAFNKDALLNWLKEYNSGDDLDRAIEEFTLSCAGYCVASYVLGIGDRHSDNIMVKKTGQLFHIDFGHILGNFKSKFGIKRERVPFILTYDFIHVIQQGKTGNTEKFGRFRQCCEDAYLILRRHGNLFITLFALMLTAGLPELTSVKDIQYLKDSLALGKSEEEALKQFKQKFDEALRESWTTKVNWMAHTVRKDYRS
In short: as §1

MAP3K4 = MAP3K4 (Homo sapiens, UniProt Q9Y6R4); settings: MAP3K4, 1 μM; read-out: % control
In short: as §1

LTK = LTK (Homo sapiens, UniProt P29376); settings: read-out: % control
Chain of LTK (P29376 17-864): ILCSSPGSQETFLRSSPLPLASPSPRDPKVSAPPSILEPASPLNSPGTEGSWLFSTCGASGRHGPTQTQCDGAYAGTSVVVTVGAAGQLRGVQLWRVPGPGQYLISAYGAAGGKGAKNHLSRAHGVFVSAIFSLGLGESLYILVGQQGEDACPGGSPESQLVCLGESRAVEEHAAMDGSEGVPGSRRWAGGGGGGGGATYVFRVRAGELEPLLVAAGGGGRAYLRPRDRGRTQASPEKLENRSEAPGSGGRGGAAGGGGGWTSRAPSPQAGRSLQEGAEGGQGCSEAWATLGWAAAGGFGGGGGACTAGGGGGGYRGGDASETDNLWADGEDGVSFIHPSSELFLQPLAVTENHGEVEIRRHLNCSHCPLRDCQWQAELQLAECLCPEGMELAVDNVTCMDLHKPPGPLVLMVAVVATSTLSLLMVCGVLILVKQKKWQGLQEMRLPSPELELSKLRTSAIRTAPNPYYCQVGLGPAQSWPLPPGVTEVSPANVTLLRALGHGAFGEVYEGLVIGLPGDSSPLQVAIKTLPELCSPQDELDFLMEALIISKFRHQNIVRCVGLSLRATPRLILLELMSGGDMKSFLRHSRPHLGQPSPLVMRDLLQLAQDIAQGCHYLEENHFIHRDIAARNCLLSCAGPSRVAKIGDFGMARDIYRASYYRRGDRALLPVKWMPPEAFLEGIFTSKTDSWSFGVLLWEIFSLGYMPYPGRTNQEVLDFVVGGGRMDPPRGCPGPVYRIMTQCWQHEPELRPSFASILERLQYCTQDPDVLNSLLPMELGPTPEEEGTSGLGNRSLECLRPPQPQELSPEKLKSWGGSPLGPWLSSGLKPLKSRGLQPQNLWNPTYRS
In short: as §1

ACVR1 = target: T5, ACVR1 (Homo sapiens, UniProt Q04771); settings: ACVR1, 1 μM; read-out: % control
T5 construct: purchased KinomeScan®
T5 sequence (Q04771 21-509): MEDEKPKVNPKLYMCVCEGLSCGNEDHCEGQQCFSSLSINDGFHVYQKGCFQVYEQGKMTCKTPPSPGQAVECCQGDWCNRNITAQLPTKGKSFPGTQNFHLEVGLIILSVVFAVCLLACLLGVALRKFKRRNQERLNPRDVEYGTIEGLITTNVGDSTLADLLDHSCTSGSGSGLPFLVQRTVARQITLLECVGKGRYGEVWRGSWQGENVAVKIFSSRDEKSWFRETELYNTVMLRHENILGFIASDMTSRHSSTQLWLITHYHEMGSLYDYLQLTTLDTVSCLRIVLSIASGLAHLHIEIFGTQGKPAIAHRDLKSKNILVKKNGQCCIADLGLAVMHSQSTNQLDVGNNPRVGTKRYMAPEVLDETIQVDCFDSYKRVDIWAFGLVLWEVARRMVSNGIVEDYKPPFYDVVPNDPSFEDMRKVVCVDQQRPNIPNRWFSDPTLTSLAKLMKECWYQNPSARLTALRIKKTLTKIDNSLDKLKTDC
In short: as §1

BRAF(V600E) = target: T6, BRAF(V600E) (Homo sapiens, UniProt P15056, V600E); settings: read-out: % control
T6 construct: purchased KinomeScan®
In short: as §1

SMILES	remaining binding at 1 µM (ERK8)	remaining binding at 1 µM [1]	remaining binding at 1 µM (CDK8)	remaining binding at 1 µM (BRSK2)	remaining binding at 1 µM (FGR)	remaining binding at 1 µM (EPHA7)	remaining binding at 1 µM (TRKB)	remaining binding at 1 µM (PIK3CB)	remaining binding at 1 µM (MAP3K4)	remaining binding at 1 µM (LTK)	remaining binding at 1 µM (ACVR1)	remaining binding at 1 µM (BRAF(V600E))
CNc1c(-c2cnn([C@H]3CCN(C(C)=O)C[C@@H]3F)c2)cnc2[nH]cc(Cl)c12 [Compound 77, 1-((3S,4S)-4-(4-(3-chloro-4-(methylamino)-1H-pyrrolo[2,3-b]pyridin-5-yl)-1H-pyrazol-1-yl)-3-fluoropiperidin-1-yl)ethan-1-one]	92%	79%	100%	100%	80%	78%	23%	100%	91%	75%	100%	98%
CNc1c(-c2ccc(C(=O)N3CCC(N4CCOCC4)CC3)cc2)cnc2[nH]cc(Cl)c12 [Compound 96, (4-(3-chloro-4-(methylamino)-1H-pyrrolo[2,3-b]pyridin-5-yl)phenyl)(4-morpholinopiperidin-1-yl)methanone]	100%	98%	82%	95%	95%	96%	48%	100%	68%	62%	81%	87%
O=C(c1ccc(-c2cnc3[nH]cc(Cl)c3c2NC2CCCC2)cc1)N1CCC(N2CCOCC2)CC1 [Compound 101, (4-(3-chloro-4-(cyclopentylamino)-1H-pyrrolo[2,3-b]pyridin-5-yl)phenyl)(4-morpholinopiperidin-1-yl)methanone]	91%	100%	59%	94%	94%	96%	100%	100%	71%	72%	100%	99%
